Columns and labels:
[1] = tested on: tissue-engineered dhBMECs microvessels; assay: BBB opening in tissue-engineered BBB microvessels (500 kDa dextran leakage); format: cell-based, human
Procedure: Three-dimensional blood-brain barrier microvessels were fabricated as previously reported (FIGS. 10A and 10B) [Linville, R. M., et al., Biomaterials, 2019. 190-191: p. 24-37] 150 μm diameter and 1 cm long channels were patterned in 7 mg mL^−1 type I collagen (Corning) using nitinol wire (Malin Co.) housed within polydimethylsiloxane (PDMS; Dow Corning). Channels were cross-linked by incubation in 20 mM genipin (Wako Biosciences) for 2 hours to increase cell adhesion. 2dhBMECs were suspended in BBB induction medium at a concentration of 5×10^6 cells mL^−1 and seeded into channels. Microvessels were perfused using BBB induction medium for 24 hours and then switched to BBB maintenance medium. During cell seeding and the first day of perfusion, 10 μM ROCK inhibitor Y27632 (ATCC) was supplemented to increase adhesion. An average shear stress of ˜2 dyn cm^−2 was maintained with a reservoir height difference (Δh) of 3 cm, corresponding to a volumetric flow rate of ˜250 μL h^−1 (FIG. 11D). This shear stress was estimated from the Poiseuille equation: τ=μQ)/2πd3 where μ is the media dynamic viscosity, Q is the volumetric flow rate, and d is the microvessel diameter.
Live-cell imaging was conducted to study dynamic changes in in vitro BBB permeability and microvessel structure. Microvessels were imaged using a 10×objective equipped on an inverted microscope (Nikon Eclipse TiE) maintained at 37° C. and 5% CO2 (FIG. S2C). Epifluorescence illumination was provided by an X-Cite 120LEDBoost (Excelitas Technologies). Phase contrast and fluorescence images were acquired every two minutes with the focal plane set to the microvessel midplane. The entire image collected consists of ten adjacent imaging frames. […] A dextran solute panel comprised of 200 μM Cascade Blue-conjugated 3 kDa dextran (Cat. No. D7132. Thermo Fisher Scientific), 16 μM Alexa Fluor647-conjugated 10 kDa dextran (Cat. No. D22914, Thermo Fisher Scientific), and 1.2 μM fluorescein-conjugated 500 kDa dextran (Cat. No. D7136, Thermo Fisher Scientific) was prepared in BBB maintenance medium. Fluorophores were independently excited and the respective emissions were collected using: Nikon UV-2E/C for 3 kDa dextran (50 ms exposure), Chroma 41008 for 10 kDa dextran (20 ms exposure), and Nikon B-2E/C for 500 kDa dextran (50 ms exposure).
Image processing was performed using ImageJ (NIH) to quantify BBB opening (FIGS. 11A-11D). First, images were cropped to a standard size of 6 mm×0.6 mm. To determine the spatial heterogeneity of BBB permeability, microvessels were sectioned into 10 regions of interest (ROIs), each a 0.6 mm×0.6 mm square (FIG. 11A). For each ROI, the integrated pixel density was plotted over time (FIG. 11A). The permeability (cm s^−1) was calculated using P=(r/2)(1/ΔI)(dI/dt), where r is the vessel radius, ΔI is the increase in fluorescence intensity upon perfusion of the fluorophore, and (dI/dt) is the rate of increase in fluorescence intensity as solute exits into the gel. […] To visually display permeability dynamics, heatmaps were generated from 90 instantaneous permeability values across the 10 ROIs (x-axis) and nine 10-minute periods (y-axis). […] 28(1): p. 41-51 in ImageJ (FIG. 11B). Under baseline conditions, thresholding results in the lumen designated as white (1) and extracellular matrix (ECM) as black (0). […] From binarized images, individual focal leaks were manually counted over time. Leaks emerging from the sides of the image frame were not counted. To quantify the duration of a BBB opening effect, we identified the time at which the last focal leak appeared and termed the focal leak reversibility time constant (τfocal leaks).

[2] = tested on: dhBMECs; assay: Cytotoxicity assay (EthD1/Hoechst live-cell imaging), dhBMECs; format: cell-based, human; details: for exposure time maintaining high cell viability: phase diagrams of dhBMECs and HCNs, 98% viability
Procedure: DhBMECs were seeded on polystyrene 96-well plate, coated with 25 μg mL^−1 fibronectin and 50 μg mL^−1 collagen IV, at 2×10^5 cells cm^−2 in BBB induction medium. On day 1, the cells were washed twice with BBB maintenance medium with gentle pipetting up-and-down to remove non-adherent cells and incubated in the medium overnight. HCN2 cells were seeded in the tissue culture-treated 96-well plate at 3×10^3 cell cm^−2 in HCN2 cell culture medium and cultured for two days at 37° C., 5% CO2, with the medium change on day 1 after the seeding. The cytotoxicity assay was performed on day 2 after seeding. Briefly, in the cytotoxicity assay, the cells were incubated with two dyes: a membrane-impermeable Ethidium homodimer-1 (EthD1, L3224, Thermo Fisher Scientific) to assess cell viability, and Hoechst 33342 nuclear stain (Cat. No. 62249, Thermo Fisher Scientific) and imaged on an epifluorescence microscope. In more detail, the cells were washed with BBB maintenance medium followed by incubation with 200 μL of 2 μg mL^−1 Hoechst 33342 and 10 μM EthD1 solution for 15-30 minutes at 37° C., 5% CO2. After the incubation, 100 μL of the solutions were replaced with Hoechst 33342 and EthD1 solutions containing melittin using a multichannel pipettor, resulting in final 0.75 μM, 5 μM, and 10 μM melittin concentrations. After the addition of treatment solutions, large 6×6 epifluorescence images were collected every ˜3.5 minutes per condition using a 20×objective and a Nikon Eclipse TiE microscope, equipped with 37° C. chamber, for 60-90 minutes. Out-of-focus portions of images were manually blacked out using ImageJ. Afterwards, the images were analyzed using a custom pipeline in image analysis software CellProfiler 3.1.8 to count Hoechst-positive objects (all cells) and EhtD1-positive objects (dead cells). The fraction of viable cells (F) was calculated using equation 2 below:
where N(EthD1)i is the number of EthD1-positive objects at time i, N(EthD1)o is the number of EthD1-positive objects at time t=2 minutes (initial time of imaging), N(Hoechst)max is the maximum number of Hoechst-positive objects counted in an image over the imaging time-course. For dhBMECs, the experiments were repeated a total of five times with two independent iPSC differentiations. In the experiment, all media removal was done by gentle pipetting and not aspiration by vacuum. For HCN2 cells, the experiments were performed a total of three times on day 2 and day 3 after seeding.

## CC[C@H](C)[C@H](NC(=O)CN)C(=O)NCC(=O)N[C@@H](C)C(=O)N[C@H](C(=O)N[C@@H](CC(C)C)C(=O)N[C@@H](CCCCN)C(=O)N[C@H](C(=O)N[C@@H](CC(C)C)C(=O)N[C@H](C(=O)N[C@H](C(=O)NCC(=O)N[C@@H](CC(C)C)C(=O)N1CCC[C@H]1C(=O)N[C@@H](C)C(=O)N[C@@H](CC(C)C)C(=O)N[C@H](C(=O)N[C@@H](CO)C(=O)N[C@@H](Cc1c[nH]c2ccccc12)C(=O)N[C@H](C(=O)N[C@@H](CCCCN)C(=O)N[C@@H](CCCNC(=N)N)C(=O)N[C@@H](CCCCN)C(=O)N[C@@H](CCCNC(=N)N)C(=O)N[C@@H](CCC(N)=O)C(=O)N[C@@H](CCC(N)=O)C(N)=O)[C@@H](C)CC)[C@@H](C)CC)[C@@H](C)O)[C@@H](C)O)C(C)C)C(C)C [melittin]
[1]
  increase in delivery of 500 kDa dextran across the blood-brain barrier in vitro: ≤ 25 fold
[1]; 5 μM melittin for 90 minutes, continuous
  500 kDa dextran permeability: high 500 kDa dextran permeability
[1]; 50 μM·minute dose
  average permeability of 500 kDa dextran, fold higher than baseline: ~25 fold
[1]; above threshold doses, retrospective comparison
  focal leak density relative to mannitol: 3 fold
[1]; all doses, 3-100 μM·minute, 500 kDa dextran
  focal leaks 24 hours after melittin exposure: focal leaks were not observed
[1]; high doses
  barrier function after 24 hours: barrier function was regained 24 hours later
[1]; high doses (10-minute 10 μM)
  BBBO: induced sustained BBBO, but did not recover during the 90 minutes of imaging
[1]; intermediate doses (5-minute 5 μM)
  BBBO: induced BBBO and resulted in recovery during the 90 minute imaging period
[1]; intermediate doses (20-50 μM·minute)
  character of focal leaks: transient
[1]; low doses (2-minute 1.5 μM)
  BBBO: did not induce BBBO
[2]; 0.75 μM melittin
  exposure time maintaining high cell viability: ≥ 20 min
[2]; 5 μM melittin
  time for which viability is largely unaffected: about 20 minutes
[2]; 5 μM melittin, continuous exposure
  time at which the viability reached 50% (τ1/2): ~40 min
[2]; 10 μM melittin
  exposure time maintaining high cell viability: ≤ 10 min
[2]; dose of 100 μM·minute
  decrease of viability: < 2%
